Key:
TMEM16A [1] = experiment: Short-circuit current recordings on human cultured bronchial epithelia, UTP-triggered Cl- secretion; type: cell-based; details: UTP 0.25 μM; ARN7149 10 μM, ARN11391 20 μM, ARN4550 20 μM; amiloride, paxillin, inh-172 present; FIG. 5A
Procedure: Human bronchial epithelial cells (HBECs) were isolated and cultured as reported in a previous study (21; 40). Briefly, HBECs were cultured in flasks in a home-made serum-free medium (21). After four to five passages, cells were seeded at high density (500,000/cm^2) on Snapwell porous insert (cc3801, Corning Costar). After 24 h from seeding, the basolateral medium was replaced with differentiation medium PneumaCult ALI (Stemcell Technologies), whereas the apical medium was totally removed to obtain the air-liquid interface (ALI) condition. Epithelia were kept under this condition for at least 2-3 weeks to achieve mucociliary differentiation.
Snapwell supports (3801, Corning) carrying FRT and differentiated HBEC epithelia were mounted in a vertical chamber resembling an Ussing system with internal fluid circulation (EM-CSYS-8, Physiologic Instruments, San Diego, CA, USA). For FRT epithelia, the apical and basolateral hemichambers were filled with solutions of different composition. The apical solution (5 ml) contained (in mM): 63 NaCl, 63 sodium gluconate, 0.38 KH2PO4, 2.13 K2HPO4, 2 CaCl2, 1 MgSO4, 20 Na-Hepes (pH 7.3), and 10 glucose. The basolateral solution (5 ml) instead contained (in mM): 126 KCl, 0.38 KH2PO4, 2.13 K2HPO4, 1 CaCl2, 1 MgSO4, 20 Na-Hepes (pH 7.3), and 10 glucose. Both solutions were continuously bubbled with air and the temperature of the solution was kept at 37° C. For HBECs, the same (bicarbonate-buffered) solution was used in both chambers. The composition of this solution was (in mM): 126 NaCl, 0.38 KH2PO4, 2.13 K2HPO4, 1 MgSO4, 1 CaCl2), 24 NaHCO3, and 10 glucose. Both sides were continuously bubbled with a gas mixture containing 5% CO2 and 95% air. […]
Transepithelial voltage was short-circuited with a voltage-clamp (VCC MC8, Physiologic Instruments, San Diego, CA, USA) connected to the apical and basolateral chambers via Ag—AgCl electrodes and agar bridges (2% agar in 1 M KCl). […] The resulting short-circuited current from each channel was recorded on a personal computer with the Acquire & Analize 2.3 software (Physiologic Instruments, San Diego, CA, USA).

TMEM16A [2] = experiment: Short-circuit current recordings on FRT epithelia with stable expression of TMEM16A; type: cell-based; details: compounds 10 μM; UTP 0.25 μM apical; vs vehicle; FIG. 1C
Procedure: Snapwell supports (3801, Corning) carrying FRT and differentiated HBEC epithelia were mounted in a vertical chamber resembling an Ussing system with internal fluid circulation (EM-CSYS-8, Physiologic Instruments, San Diego, CA, USA). For FRT epithelia, the apical and basolateral hemichambers were filled with solutions of different composition. The apical solution (5 ml) contained (in mM): 63 NaCl, 63 sodium gluconate, 0.38 KH2PO4, 2.13 K2HPO4, 2 CaCl2, 1 MgSO4, 20 Na-Hepes (pH 7.3), and 10 glucose. The basolateral solution (5 ml) instead contained (in mM): 126 KCl, 0.38 KH2PO4, 2.13 K2HPO4, 1 CaCl2, 1 MgSO4, 20 Na-Hepes (pH 7.3), and 10 glucose. Both solutions were continuously bubbled with air and the temperature of the solution was kept at 37° C. For HBECs, the same (bicarbonate-buffered) solution was used in both chambers. The composition of this solution was (in mM): 126 NaCl, 0.38 KH2PO4, 2.13 K2HPO4, 1 MgSO4, 1 CaCl2), 24 NaHCO3, and 10 glucose. Both sides were continuously bubbled with a gas mixture containing 5% CO2 and 95% air. The temperature of the solution was kept at 37° C. throughout the experiment.
Transepithelial voltage was short-circuited with a voltage-clamp (VCC MC8, Physiologic Instruments, San Diego, CA, USA) connected to the apical and basolateral chambers via Ag—AgCl electrodes and agar bridges (2% agar in 1 M KCl). The offset between voltage electrodes and the fluid resistance were cancelled before experiments. The resulting short-circuited current from each channel was recorded on a personal computer with the Acquire & Analize 2.3 software (Physiologic Instruments, San Diego, CA, USA).

PLC = PLC assay in FRT cells expressing PH-PLC-GFP sensor; type: cell-based; details: compounds 10 μM, cytosolic GFP increase, FIG. 3; for potentiation of UTP effect on PLC activity, lower UTP concentration: UTP 0.25 μM; for potentiation of UTP effect on PLC activity, higher UTP concentration: UTP 100 μM
Procedure: FRT cells with stable expression of PLC6-PH-GFP, generated in the laboratory of inventors, were cultured up to subconfluent condition in p-Plate96 microplates (Ibidi). Each well of a 96-well microplate was washed 3 times, leaving 125 μl of phosphate-buffered saline (PBS) containing compounds at 10 μM final concentration or vehicle. After 20 min of incubation at 37° C., microplate was moved on the stage of an inverted microscope equipped with GFP excitation/emission filters, 40×oil immersion objective (Olympus, Segrate, Italy), Lambda DG4 illumination system (Sutter Instrument Co., Novato, CA, USA), Prime cmos camera (Photometrics, Tucson, AZ, USA) and MetaMorph imaging acquisition software (Molecular Devices, Sunnyvale, CA, USA). Time-lapse experiments were carried out with 50 ms exposure time, 20 frame/s rate, and 2.4 min total duration. After 20 s and 90 s, UTP 0.25 μM and 100 μM (final concentrations) was respectively added. Analysis was performed with MetaMorph software, by quantifying GFP fluorescence cytoplasmic accumulation in manually selected single cell regions of interest (ROI). After background subtraction, fluorescence recordings were normalized for the initial value.

FRT cells = experiment: Fluo-4 Ca2+ mobilization assay in parental (null) FRT cells; type: cell-based, rat; details: for direct Ca2+ mobilization in the absence of UTP (Fluo-4): acute addition, Eact 5 μM, FIG. 2B; for direct Ca2+ mobilization in the absence of UTP (Fluo-4) / potentiation of UTP-dependent Ca2+ increase (Fluo-4): compounds 10 μM; for potentiation of UTP-dependent Ca2+ increase (Fluo-4): FIG. 2A
Procedure: Experiments were performed using the microplate reader described for the HS-YFP assay. FRT and HEK293 cells were cultured until confluence in 96-well microplates (3603, Corning). Cells were washed 2 times with PBS (150 μl/wash) and then loaded for 1 h at 37° C. with 5 μM Fluo-4/AM (Thermo Fisher Scientific; catalog number: F23917) in PBS containing 10 mM glucose, 0.5 mM sulfinpyrazone, and 1% fetal bovine serum. […] Each well was assayed individually. Fluo-4 fluorescence (500 nm excitation, 535 nm emission) was detected every 200 ms for 16-40 s. Two seconds after the start of fluorescence recording, the reader automatically injected 165 μl of a modified PBS containing 136 mM KCl instead of NaCl. This solution also contained 10 mM glucose, 0.5 mM sulfinpyrazone, and UTP or SLIGR-NH2 (CAS #171436-38-7) at a final concentration that depended on the specific cell type. For UTP we used: 0.25 μM for FRT; 1 μM for HEKR2; 5 μM for HEK3XKO, HEKR1, and HEKR3. For SLIGR-NH2 we used: 10 μM for HEKR1; 4 μM for HEKR2. These concentrations were chosen to elicit ˜20% of maximal effect based on UTP and SLIGR-NH2 dose-response relationships. The lower agonist concentrations used for HEKR2 cells, compared to HEKR1 cells, are consistent with the higher affinity of ITPR2 for IP3 (16). The Fluo-4 fluorescence increase was quantified using a procedure compiled in Microsoft Excel after background subtraction and normalization for the initial value measured before UTP addition.
In a further experimental setting, experiments were performed using as above the FLUOstar Omega (BMG Labtech, Offenburg, Germany) microplate reader equipped with syringe pumps and optical excitation/emission filters optimized for yellow fluorescent protein (YFP) fluorescence (ET500/20× and ET535/30m, respectively; Chroma Technology Corporation). FRT and Chem-1 cells were cultured until confluence in 96-well microplates (cc3603, Corning). Cells were washed 2 times with PBS (150 μl/wash) and then loaded for 1 h at 37° C. with 5 μM Fluo-4/AM (Thermo Fisher Scientific; catalog number: F23917) in PBS containing 10 mM glucose, 0.5 mM sulfinpyrazone, and 1% fetal bovine serum. […] Each well was assayed individually. Fluo-4 fluorescence (500 nm excitation, 535 nm emission) was detected every 200 ms for 16-40 s. Two seconds after the start of fluorescence recording, the reader automatically injected 165 μl of a modified PBS containing 136 mM KCl instead of NaCl. This solution also contained, in addition to 10 mM glucose and 0.5 mM sulfinpyrazone, the following agonists: UTP (U6625, Merck) or CCK8s (23371, Cayman Chemical). The Fluo-4 fluorescence increase was quantified using a procedure compiled in Microsoft Excel after background subtraction and normalization for the initial value measured before UTP or CCK8s addition.

SMILES | transepithelial Cl- current elicited by apical UTP (TMEM16A [1]) | peak of Cl- current elicited by UTP (short-circuit current) (TMEM16A [2]) | potentiation of UTP effect on PLC activity, lower UTP concentration (PLC) | potentiation of UTP effect on PLC activity, higher UTP concentration (PLC) | direct Ca2+ mobilization in the absence of UTP (Fluo-4) (FRT cells) | potentiation of UTP-dependent Ca2+ increase (Fluo-4) (FRT cells; UTP 0.25 μM) | potentiation of the Ca2+ increase elicited by UTP, multiple concentrations (FRT cells; UTP 0.25 μM, compounds 1-80 μM, vs vehicle (DMSO), FIG. 8)
CCc1cc(-c2cc(NCCCOc3ccccc3C)nc(N)n2)n(C)n1 [ARN7149, 6-(3-Ethyl-1-methyl-1H-pyrazol-5-yl)-N^4-(3-(o-tolyloxy)propyl)pyrimidine-2,4-diamine] | significantly enhanced | significantly enhanced | significantly potentiated | effective | No effect | able to potentiate | 
CCn1nc2c(c1C(=O)Nc1ccccc1OCC1CCCCO1)CCCC2 (stereo not drawn) [ARN11391, 2-Ethyl-N-[2-(tetrahydropyran-2-ylmethoxy)phenyl]-4,5,6,7-tetrahydroindazole-3-carboxamide] | significantly enhanced | significantly enhanced |  | effective | No effect | able to potentiate | dose-dependent potentiation
OCc1ccccc1CN(Cc1ccnc(N2CCCC2)n1)c1ccc(F)cc1 [ARN4550, [2-[[4-Fluoro-N-[(2-pyrrolidin-1-ylpyrimidin-4-yl)methyl]anilino]methyl]phenyl]methanol] | significantly enhanced | significantly enhanced | significantly potentiated | effective | No effect | able to potentiate | 

— US20260138970A1, “MODULATORS OF THE CALCIUM SIGNALING CASCADE” (FONDAZIONE TELETHON ETS, priority 2022, published 2026)
